In brackets after ≈: the same amount, converted by molar mass.
Legend:
Format in all cases: functional
HEL [1] = test: Tested for antiviral activity against thymidine kinase deficient Varicella zoster virus in human embryonic lung fibroblasts
E6SM [2] = test: Tested for cytotoxic activity in human embryonic skin muscle fibroblast (E6SM); details: Muscle tissue
HeLa [3] = test: Tested for antiviral activity against coxsackie-B4 virus in human epithelial cell line
Vero [4] = test: Tested for antiviral activity against Sindbis virus in African green monkey kidney cell (Vero); details: Chlorocebus sabaeus
E6SM [5] = test: Tested for antiviral activity against herpes simplex virus type 1(KOS) in E6SM cell line(human embryonic skin-muscle fibroblasts)
HEL [6] = test: Tested for antiviral activity against thymidine kinase wild type Varicella zoster virus in human embryonic lung fibroblast
E6SM [7] = test: Tested for antiviral activity against VSV-virus in human embryonic skin muscle fibroblasts; details: Muscle tissue
HEL [8] = test: Tested for cytotoxic activity in human embryonic lung fibroblast (HEL)
E6SM [9] = test: Tested for antiviral activity against thymidine kinase-deficient (TK-HSV-2G) virus in E6SM cell line(human embryonic skin-muscle fibroblasts)
Vero [10] = test: Tested for antiviral activity against coxsackie B-4 virus in African green monkey kidney cell (Vero); details: Chlorocebus sabaeus
E6SM [11] = test: The compound was tested for antiviral activity against thymidine kinase-deficient (TK-HSV-1)virus in E6SM cell line(human embryonic skin-muscle fibroblasts)
Vero [12] = test: Tested for antiviral activity against Punta toro virus in African green monkey kidney cell (Vero); details: Chlorocebus sabaeus
Vero [13] = test: Tested for antiviral activity against Reo-1 virus in African green monkey kidney cell (Vero); details: Chlorocebus sabaeus
Vero [14] = test: Tested for cytotoxic activity in African green monkey kidney cells (Vero); details: Chlorocebus sabaeus
HeLa [15] = test: The compound was tested for antiviral activity against VSV-virus in human epithelial cells
Vero [16] = test: Tested for antiviral activity against parainfluenza virus in african green monkey kidney cell (Vero); details: Chlorocebus sabaeus
HeLa [17] = test: Tested for cytotoxic activity in human epithelial cell line (HeLa)
E6SM [18] = test: Tested for antiviral activity against vaccinia virus in human embryonic skin muscle fibroblast; details: Muscle tissue
HEL [19] = test: Tested for antiviral activity against human cytomegalovirus (AD-169) in human embryonic lung fibroblasts
K562 [20] = test: Tested for the inhibitory concentration against cell growth of human leukemic cell line K562
CCRF-CEM [21] = test: Tested for the inhibitory concentration against cell growth of human leukemic cell line CCRF-CEM
CCRF-CEM [22] = test: Tested for the concentration required to reduce the viability of leukemia cells by 50% against cell growth of T cell leukemia cell line CCRF-CEM using MTT assay; details: Homo sapiens, read-out: LC50 (the source's name)
HuT78 [23] = test: Tested for the concentration required to reduce the viability of leukemia cells by 50% against cell growth of HuT78 T lymphoma using MTT assay; details: Homo sapiens, read-out: LC50 (the source's name)
K562 [24] = test: Tested for the inhibitory concentration against cell growth of K562 chronic myeloid leukemia using MTT assay; details: Homo sapiens
MOLT-4 [25] = test: Tested for the inhibitory concentration against cell growth of Tcell leukemic cell line MOLT-4 using MTT assay; details: Homo sapiens
HL-60 [26] = test: Tested for the inhibitory concentration against cell growth of HL60 acute myeloid leukemia using MTT assay; details: Homo sapiens
HuT78 [27] = test: Tested for the inhibitory concentration against cell growth of HuT78 T lymphoma using MTT assay; details: Homo sapiens
HL-60 [28] = test: Tested for the concentration required to reduce the viability of leukemia cells by 50% against cell growth of HL60 acute myeloid leukemia using MTT assay; details: Homo sapiens, read-out: LC50 (the source's name)
MOLT-4 [29] = test: Tested for the inhibitory concentration against cell growth of human leukemic cell line MOLT-4
HL-60 [30] = test: Tested for the inhibitory concentration against cell growth of human leukemic cell line HL60
RPMI-8226 [31] = test: Tested for the inhibitory concentration against cell growth of […] multiple myeloma using MTT assay; details: Homo sapiens
HuT78 [32] = test: Tested for the inhibitory concentration against cell growth of human leukemic cell line HuT78
MOLT-4 [33] = test: Tested for the concentration required to reduce the viability of leukemia cells by 50% against cell growth of T cell leukemia cell line MOLT-4 using MTT assay; details: Homo sapiens, read-out: LC50 (the source's name)
RPMI-8226 [34] = test: Tested for the concentration required to reduce the viability of leukemia cells by 50% against cell growth of RPMI8226 multiple myeloma using MTT assay; details: Homo sapiens, read-out: LC50 (the source's name)
CCRF-CEM [35] = test: Tested for the inhibitory concentration against cell growth of Tcell leukemic cell line CCRF-CEM using MTT assay; details: Homo sapiens
RPMI-8226 [36] = test: Tested for the inhibitory concentration against cell growth of human leukemic cell line RPMI8226
K562 [37] = test: Tested for the concentration required to reduce the viability of leukemia cells by 50% against cell growth of K562 chronic myeloid leukemia using MTT assay; details: Homo sapiens, read-out: LC50 (the source's name)

## O=c1[nH]c(=O)n([C@H]2C[C@H](O)[C@@H](CO)O2)cc1/C=C/Br [BRIVUDINE]
HEL [1]
  MIC: > 50 µg/mL
E6SM [2]
  MCC: > 400 µg/mL
HeLa [3]
  MIC: > 400 µg/mL
Vero [4]
  MIC: > 400 µg/mL
E6SM [5]
  MIC: 0.05 µg/mL (≈ 0.15 µM)
HEL [6]
  MIC: 0.009 µg/mL (≈ 0.027 µM)
E6SM [7]
  MIC: > 400 µg/mL
HEL [8]
  MCC: > 50 µg/mL
E6SM [9]
  MIC: 80 µg/mL (≈ 240 µM)
Vero [10]
  MIC: > 400 µg/mL
E6SM [11]
  MIC: 400 µg/mL (≈ 1200 µM)
Vero [12]
  MIC: > 400 µg/mL
Vero [13]
  MIC: > 400 µg/mL
Vero [14]
  MCC: > 400 µg/mL
HeLa [15]
  MIC: > 400 µg/mL
Vero [16]
  MIC: > 400 µg/mL
HeLa [17]
  MCC: > 400 µg/mL
E6SM [18]
  MIC: 3.2 µg/mL (≈ 9.61 µM)

## Nc1ccn(C[C@@H](CO)OCP(=O)(O)O)c(=O)n1.O.O [CIDOFOVIR]
HEL [19]
  MIC: 0.27 µg/mL
HEL [8]
  MCC: > 50 µg/mL

## Nc1nc2c(ncn2COC(CO)CO)c(=O)[nH]1 [GANCICLOVIR]
HEL [19]
  MIC: 2 µg/mL (≈ 7.84 µM)
E6SM [2]
  MCC: > 100 µg/mL
E6SM [5]
  MIC: 0.0064 µg/mL (≈ 0.0251 µM)
E6SM [7]
  MIC: 9.6 µg/mL (≈ 37.6 µM)
HEL [8]
  MCC: > 50 µg/mL
E6SM [9]
  MIC: 0.019 µg/mL (≈ 0.0744 µM)
E6SM [11]
  MIC: 9.6 µg/mL (≈ 37.6 µM)
E6SM [18]
  MIC: > 100 µg/mL

## CC[C@]1(O)C[C@@H]2CN(CCc3c([nH]c4ccccc34)[C@@](C(=O)OC)(c3cc4c(cc3OC)N(C)[C@H]3[C@@](O)(C(=O)OC)[C@H](OC(C)=O)[C@]5(CC)C=CCN6CC[C@]43[C@@H]65)C2)C1 [VINBLASTINE]
K562 [20]
  GI50: < 0.25 nM
CCRF-CEM [21]
  GI50: 0.02 nM
CCRF-CEM [22]
  CC50: 5.73 nM
HuT78 [23]
  CC50: 0.25 nM
K562 [24]
  TGI: < 0.25 nM
MOLT-4 [25]
  TGI: < 0.25 nM
HL-60 [26]
  TGI: 0.25 nM
HuT78 [27]
  TGI: < 0.25 nM
HL-60 [28]
  CC50: 1.51 nM
MOLT-4 [29]
  GI50: < 0.25 nM
HL-60 [30]
  GI50: 0.036 nM
RPMI-8226 [31]
  TGI: 0.8 nM
HuT78 [32]
  GI50: < 0.25 nM
MOLT-4 [33]
  CC50: < 0.25 nM
RPMI-8226 [34]
  CC50: 3.28 nM
CCRF-CEM [35]
  TGI: 1.91 nM
RPMI-8226 [36]
  GI50: 0.003 nM
K562 [37]
  CC50: < 0.25 nM
